Each structure is given as a SMILES string.

T3 sequence (Q92769 whole entry): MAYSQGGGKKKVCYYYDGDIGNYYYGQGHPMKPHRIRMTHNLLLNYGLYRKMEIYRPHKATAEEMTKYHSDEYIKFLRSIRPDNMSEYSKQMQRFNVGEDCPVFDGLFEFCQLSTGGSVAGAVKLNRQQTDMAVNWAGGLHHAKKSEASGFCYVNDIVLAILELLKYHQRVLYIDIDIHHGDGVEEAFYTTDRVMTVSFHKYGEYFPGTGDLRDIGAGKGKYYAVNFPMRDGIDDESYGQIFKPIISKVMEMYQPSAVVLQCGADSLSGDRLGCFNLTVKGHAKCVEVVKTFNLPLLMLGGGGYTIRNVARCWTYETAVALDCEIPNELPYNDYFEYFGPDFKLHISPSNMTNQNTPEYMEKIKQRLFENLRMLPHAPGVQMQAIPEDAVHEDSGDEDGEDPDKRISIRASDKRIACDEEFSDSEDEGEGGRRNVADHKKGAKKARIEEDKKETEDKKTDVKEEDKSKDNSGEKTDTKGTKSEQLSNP

The target of one test is T1, Recombinant human HDAC1 (Homo sapiens, UniProt Q13547).
T1 construct: FLAG (C); made in house
T1 sequence (Q13547 whole entry): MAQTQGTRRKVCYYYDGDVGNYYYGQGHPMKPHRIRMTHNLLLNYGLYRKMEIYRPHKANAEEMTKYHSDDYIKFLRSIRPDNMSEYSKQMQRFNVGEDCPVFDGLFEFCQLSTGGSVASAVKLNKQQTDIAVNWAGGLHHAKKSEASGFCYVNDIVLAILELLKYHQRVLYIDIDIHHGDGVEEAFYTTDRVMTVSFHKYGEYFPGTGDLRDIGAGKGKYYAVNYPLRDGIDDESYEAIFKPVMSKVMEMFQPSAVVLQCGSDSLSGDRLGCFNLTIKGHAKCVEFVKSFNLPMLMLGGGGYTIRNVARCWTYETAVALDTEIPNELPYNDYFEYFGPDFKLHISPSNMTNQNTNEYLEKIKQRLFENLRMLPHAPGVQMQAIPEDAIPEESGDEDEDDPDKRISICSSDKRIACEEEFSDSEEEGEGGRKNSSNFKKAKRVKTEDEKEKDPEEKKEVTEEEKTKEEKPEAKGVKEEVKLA
Description: Human HDAC enzyme inhibitor Fluor-de-Lys assay, HDAC1. To be noted: recombinant human HDAC1, Fluor-de-Lys assay. The format is biochemical. Here is the method: (§1) Human HDAC Enzyme Inhibitor Fluor-De-Lys Assay
(§2) Recombinant human HDAC8 (BML-SE145-0100) and HDAC10 (BML-SE559-0050) enzymes, HDAC substrates BML-KI104 and BML-KI178, and HDAC developer solutions BML-KI105 and BML-KI176 were purchased from Enzo Life Sciences. […] HDAC inhibitor suberoylanilide hydroxamic acid (SAHA) was obtained from Indofine and trichostatin A (TSA) was obtained from Sigma-Aldrich.
(§3) Recombinant human HDAC1, HDAC2, and HDAC3/SMRT heterodimer were prepared by Merck Research Laboratories. […] The eluted protein was then passed over an anti-HDAC1 immunoaffinity column to remove any complexes containing HDAC1. […]
(§4) The histone deacetylase activities of HDAC1, HDAC2, HDAC3, HDAC6, and HDAC8 were measured in modified FLUOR DE LYS assays in 384-well format. In this assay, HDAC enzymes are initially incubated with an ε-acetyl (or -trifluoroacetyl)-L-lysine-containing substrate with a C-terminal amide having aminomethylcoumarin as the amine component. HDACs cleave the ε-acetyl group, rendering the resulting product susceptible to AMC cleavage by trypsin. The released AMC is then detected by its fluorescence.
(§5) The HDAC3/SMRT assay employed buffer B, consisting of 20 mM HEPES, pH 8.0, 1 mM MgCl2, 50 mM NaCl, 2.7 mM KCl, 0.05% BSA, 0.005% Tween 20, and 10 μM IP4. […] The HDAC8 assay employed buffer D, consisting of 20 mM HEPES, pH 8.0, 1 mM MgCl2, 100 mM NaCl, 20 mM KCl, 0.10% n-octyl-β-D-glucoside (Anatrace) and 0.05% BSA. All steps were performed at room temperature (23° C.). The assay was performed by pre-incubating serial dilutions of test compounds with the target HDAC prior to initiation with substrate. Each compound was titrated in a 10-point dose response, using a 1:3 fold dilution scheme, with 0.15 ul of solution added by ECH0555 to the plate, followed by the addition of 20 μl of the appropriate HDAC isoform diluted in appropriate assay buffer. […] Final conditions used for each assay were: 1. HDAC 1, 0.3 nM total enzyme, 20 μM substrate BML-KI104; 2. […] HDAC 3/SMRT, 0.3 nM total enzyme, 20 μM substrate BML-KI104; 4. […] The reactions were stopped and developed by addition of 30 ul of HDAC developer solution containing a saturating level of HDAC inhibitor as follows: 1.
Turning to `CCC(=O)CCCCC[C@H](NC(=O)C1NC(=O)CC12CNC2)c1nnc(-c2cc3ccccc3nc2OC)o1` (some centres unmarked) [Compound 304], the IC50 – broadly, the concentration at which inhibition is half-maximal – turned out to be 3.59 nM.
Still for that read-out and setting: next, `CCC(=O)CCCCC[C@H](NC(=O)C1CC12CCN(CC)CC2)c1nc(-c2ccc(F)cc2)[nH]c1-c1cccc(OC)c1` (some centres unmarked) [Compound 246]: 177 nM; `CCC(=O)CCCCC[C@H](NC(=O)[C@H]1CC[C@]2(CC1)OC(=O)c1ncccc12)c1ncc(-c2ccccc2)[nH]1` [Compound 377]: 47.1 nM.
As for `CCC(=O)CCCCC[C@H](NC(=O)[C@H]1CC12CCN(C)CC2)c1ncc(-c2ccc3cnc(Cl)cc3c2)[nH]1` [Compound 351], the IC50 was determined as 1.57 nM.

The target in a further test is T2, Recombinant human HDAC3/SMRT heterodimer (Homo sapiens, UniProt O15379).
T2 construct: FLAG (C); made in house
T2 sequence (O15379 whole entry): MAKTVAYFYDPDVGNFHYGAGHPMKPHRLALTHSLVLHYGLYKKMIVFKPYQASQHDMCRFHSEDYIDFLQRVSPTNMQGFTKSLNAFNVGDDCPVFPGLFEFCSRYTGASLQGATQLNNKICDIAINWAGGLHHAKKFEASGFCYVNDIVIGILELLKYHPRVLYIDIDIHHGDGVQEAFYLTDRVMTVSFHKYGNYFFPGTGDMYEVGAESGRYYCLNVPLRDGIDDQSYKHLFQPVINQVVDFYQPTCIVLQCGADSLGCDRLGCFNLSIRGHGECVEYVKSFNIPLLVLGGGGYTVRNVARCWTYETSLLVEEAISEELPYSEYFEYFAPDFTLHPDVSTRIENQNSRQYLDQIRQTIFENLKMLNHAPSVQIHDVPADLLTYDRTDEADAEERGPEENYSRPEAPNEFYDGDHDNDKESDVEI
T2 sequence (Q9Y618 1-899 partner limits assumed): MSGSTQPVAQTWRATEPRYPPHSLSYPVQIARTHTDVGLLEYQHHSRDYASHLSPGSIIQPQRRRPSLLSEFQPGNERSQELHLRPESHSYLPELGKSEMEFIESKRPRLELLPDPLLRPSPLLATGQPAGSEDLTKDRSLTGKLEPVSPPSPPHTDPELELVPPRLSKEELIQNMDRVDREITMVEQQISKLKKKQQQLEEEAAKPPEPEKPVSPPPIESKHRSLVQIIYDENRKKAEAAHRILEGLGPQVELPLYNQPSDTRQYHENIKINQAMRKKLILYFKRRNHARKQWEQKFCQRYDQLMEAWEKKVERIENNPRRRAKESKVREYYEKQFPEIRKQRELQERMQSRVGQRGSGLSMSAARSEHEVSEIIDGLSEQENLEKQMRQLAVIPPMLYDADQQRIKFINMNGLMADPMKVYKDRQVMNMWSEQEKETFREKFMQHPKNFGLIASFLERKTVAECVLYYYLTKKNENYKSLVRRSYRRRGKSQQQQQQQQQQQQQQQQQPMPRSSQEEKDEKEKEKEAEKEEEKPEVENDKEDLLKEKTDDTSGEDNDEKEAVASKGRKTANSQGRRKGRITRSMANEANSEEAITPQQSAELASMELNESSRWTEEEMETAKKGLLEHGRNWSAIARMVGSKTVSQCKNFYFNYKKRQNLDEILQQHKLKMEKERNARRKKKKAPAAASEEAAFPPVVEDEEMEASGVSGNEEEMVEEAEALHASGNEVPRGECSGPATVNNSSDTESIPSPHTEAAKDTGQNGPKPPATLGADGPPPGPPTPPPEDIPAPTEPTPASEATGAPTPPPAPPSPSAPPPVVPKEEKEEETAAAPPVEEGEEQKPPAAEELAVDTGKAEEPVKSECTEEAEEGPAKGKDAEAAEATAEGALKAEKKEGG
Briefly: Human HDAC enzyme inhibitor Fluor-de-Lys assay, HDAC3/SMRT. The format is biochemical. The note with it: recombinant human HDAC3/SMRT, Fluor-de-Lys assay.
With `CCC(=O)CCCCC[C@H](NC(=O)C1NC(=O)CC12CNC2)c1nnc(-c2cc3ccccc3nc2OC)o1` (some centres unmarked) [Compound 304], the IC50 was 3.23 nM.
Still for that read-out and setting: next, `CCC(=O)CCCCC[C@H](NC(=O)C1CC12CCN(CC)CC2)c1nc(-c2ccc(F)cc2)[nH]c1-c1cccc(OC)c1` (some centres unmarked) [Compound 246]: 155 nM; `CCC(=O)CCCCC[C@H](NC(=O)[C@H]1CC[C@]2(CC1)OC(=O)c1ncccc12)c1ncc(-c2ccccc2)[nH]1` [Compound 377]: 6.9 nM; `CCC(=O)CCCCC[C@H](NC(=O)[C@H]1CC12CCN(C)CC2)c1ncc(-c2ccc3cnc(Cl)cc3c2)[nH]1` [Compound 351]: 1.32 nM.

The next test concerns the target T3, Recombinant human HDAC2 (Homo sapiens, UniProt Q92769).
T3 construct: Full length human HDAC2-FLAG was expressed in baculovirus infected Sf9 cells; FLAG (C); made in house; host or cells: Sf9 (baculovirus)
Description: Human HDAC enzyme inhibitor Fluor-de-Lys assay, HDAC2. The format is biochemical. The note with it: recombinant human HDAC2, Fluor-de-Lys assay. Here is the method: as §1, §2, §3, §4, §5
In the case of `CCC(=O)CCCCC[C@H](NC(=O)C1NC(=O)CC12CNC2)c1nnc(-c2cc3ccccc3nc2OC)o1` (some centres unmarked) [Compound 304], the IC50 came out at 8 nM.
On the same count and under the same terms, next, `CCC(=O)CCCCC[C@H](NC(=O)C1CC12CCN(CC)CC2)c1nc(-c2ccc(F)cc2)[nH]c1-c1cccc(OC)c1` (some centres unmarked) [Compound 246]: 769 nM.
Same read-out and setting: next, `CCC(=O)CCCCC[C@H](NC(=O)[C@H]1CC[C@]2(CC1)OC(=O)c1ncccc12)c1ncc(-c2ccccc2)[nH]1` [Compound 377]: 232 nM; `CCC(=O)CCCCC[C@H](NC(=O)[C@H]1CC12CCN(C)CC2)c1ncc(-c2ccc3cnc(Cl)cc3c2)[nH]1` [Compound 351]: 7.1 nM.

The test system of a further test is KARN cells (Jurkat 2C4). Briefly: cells. The format is cell-based. The note with it: Homo sapiens, Jurkat, read-out: Karn EC50 (nM) 0.1% NHS, 0.1% normal human serum; luciferase induction, 100% = 2 μM SAHA. Put shortly:
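Luminescence (Steady-Glo, 10 min, room temperature) measured next day in KARN Jurkat 2C4 cells given compounds at up to 40 μM final with 0.4% DMSO. Percent activation normalised to DMSO (0%) and 2 μM SAHA (100%), fitted by 4-parameter curve.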
As to `CCC(=O)CCCCC[C@H](NC(=O)C1NC(=O)CC12CNC2)c1nnc(-c2cc3ccccc3nc2OC)o1` (some centres unmarked) [Compound 304], the EC50 (usually the concentration giving half of the maximal effect) was found to be 17300 nM.
Consider `CCC(=O)CCCCC[C@H](NC(=O)C1CC12CCN(CC)CC2)c1nc(-c2ccc(F)cc2)[nH]c1-c1cccc(OC)c1` (some centres unmarked) [Compound 246], for which the EC50 is 1940 nM.

Still in this test, the particulars now being: Homo sapiens, Jurkat, read-out: Karn EC50 (nM) 5% NHS, 5% normal human serum; luciferase induction, 100% = 2 μM SAHA.
On to `CCC(=O)CCCCC[C@H](NC(=O)C1CC12CCN(CC)CC2)c1nc(-c2ccc(F)cc2)[nH]c1-c1cccc(OC)c1` (some centres unmarked) [Compound 246], for which the EC50 turned out to be 3770 nM.

The next test has as its target T4, HDAC6 (Homo sapiens, UniProt Q9UBN7).
T4 sequence (Q9UBN7 1-1215): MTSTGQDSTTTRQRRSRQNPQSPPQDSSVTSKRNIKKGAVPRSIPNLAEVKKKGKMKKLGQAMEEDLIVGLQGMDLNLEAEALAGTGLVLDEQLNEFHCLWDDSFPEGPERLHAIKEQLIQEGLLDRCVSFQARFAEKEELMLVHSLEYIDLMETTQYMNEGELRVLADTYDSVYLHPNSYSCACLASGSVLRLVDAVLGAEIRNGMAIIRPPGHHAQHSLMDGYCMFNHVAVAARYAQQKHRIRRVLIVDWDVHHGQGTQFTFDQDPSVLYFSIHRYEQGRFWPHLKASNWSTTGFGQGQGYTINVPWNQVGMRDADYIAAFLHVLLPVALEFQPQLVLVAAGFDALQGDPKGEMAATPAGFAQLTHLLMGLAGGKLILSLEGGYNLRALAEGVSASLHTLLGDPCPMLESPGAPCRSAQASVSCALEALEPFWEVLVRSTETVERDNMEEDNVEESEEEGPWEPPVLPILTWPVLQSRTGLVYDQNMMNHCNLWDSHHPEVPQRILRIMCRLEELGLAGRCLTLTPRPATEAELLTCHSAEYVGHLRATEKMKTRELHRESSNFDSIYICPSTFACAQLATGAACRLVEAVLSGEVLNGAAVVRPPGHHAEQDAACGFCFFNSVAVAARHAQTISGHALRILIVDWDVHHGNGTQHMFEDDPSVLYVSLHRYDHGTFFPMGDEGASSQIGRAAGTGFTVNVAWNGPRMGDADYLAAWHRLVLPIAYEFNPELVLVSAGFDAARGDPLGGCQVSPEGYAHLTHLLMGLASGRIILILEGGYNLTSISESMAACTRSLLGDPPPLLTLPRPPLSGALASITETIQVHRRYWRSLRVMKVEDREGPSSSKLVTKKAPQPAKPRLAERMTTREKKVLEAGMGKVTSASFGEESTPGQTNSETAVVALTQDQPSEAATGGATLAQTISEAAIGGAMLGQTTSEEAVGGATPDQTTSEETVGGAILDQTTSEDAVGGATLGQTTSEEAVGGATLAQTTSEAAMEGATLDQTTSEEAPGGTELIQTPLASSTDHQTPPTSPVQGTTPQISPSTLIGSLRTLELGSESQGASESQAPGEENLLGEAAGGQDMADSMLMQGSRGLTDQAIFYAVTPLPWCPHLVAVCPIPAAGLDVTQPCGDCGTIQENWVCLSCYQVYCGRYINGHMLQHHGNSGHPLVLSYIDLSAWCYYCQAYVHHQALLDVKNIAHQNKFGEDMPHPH
Briefly: Human HDAC enzyme inhibitor Fluor-de-Lys assay, HDAC6. The format is biochemical. To be noted: HDAC6, Fluor-de-Lys assay.
Regarding `CCC(=O)CCCCC[C@H](NC(=O)[C@H]1CC[C@]2(CC1)OC(=O)c1ncccc12)c1ncc(-c2ccccc2)[nH]1` [Compound 377], inhibition was half-maximal at 8290 nM (IC50).
As for `CCC(=O)CCCCC[C@H](NC(=O)[C@H]1CC12CCN(C)CC2)c1ncc(-c2ccc3cnc(Cl)cc3c2)[nH]1` [Compound 351], the midpoint of inhibition, the IC50, lay at 1470 nM.

For the next test, the target named is T5, Recombinant human HDAC8 (Homo sapiens, UniProt Q9BY41).
T5 construct: purchased Enzo Life Sciences BML-SE145-0100
T5 sequence (Q9BY41 1-377): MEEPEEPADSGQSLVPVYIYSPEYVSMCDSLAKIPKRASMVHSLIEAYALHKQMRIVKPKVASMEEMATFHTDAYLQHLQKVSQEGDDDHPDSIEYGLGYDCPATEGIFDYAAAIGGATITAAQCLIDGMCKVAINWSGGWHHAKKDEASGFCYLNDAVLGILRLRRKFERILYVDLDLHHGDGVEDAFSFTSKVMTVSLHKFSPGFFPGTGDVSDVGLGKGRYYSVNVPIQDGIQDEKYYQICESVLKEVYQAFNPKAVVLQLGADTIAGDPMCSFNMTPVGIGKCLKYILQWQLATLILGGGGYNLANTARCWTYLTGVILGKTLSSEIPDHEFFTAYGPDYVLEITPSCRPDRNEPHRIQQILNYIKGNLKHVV
Description: Human HDAC enzyme inhibitor Fluor-de-Lys assay, HDAC8. To be noted: recombinant human HDAC8, Fluor-de-Lys assay. The format is biochemical.
For `CCC(=O)CCCCC[C@H](NC(=O)C1NC(=O)CC12CNC2)c1nnc(-c2cc3ccccc3nc2OC)o1` (some centres unmarked) [Compound 304], the IC50 was determined as 20800 nM.
`CCC(=O)CCCCC[C@H](NC(=O)[C@H]1CC[C@]2(CC1)OC(=O)c1ncccc12)c1ncc(-c2ccccc2)[nH]1` [Compound 377]: the IC50 stood at 3010 nM.
`CCC(=O)CCCCC[C@H](NC(=O)[C@H]1CC12CCN(C)CC2)c1ncc(-c2ccc3cnc(Cl)cc3c2)[nH]1` [Compound 351]: the IC50 is 5830 nM.

Values taken from patent publication US12590099B2, “Inhibitors of histone deacetylase useful for the treatment or prevention of HIV infection” (Merck Sharp & Dohme LLC, priority 2018, dated 2026).
